Values quoted from earlier work, collected in patent US10332616B2, “Movable type method applied to protein-ligand binding” (University of Florida Research Foundation, Inc., priority 2013, dated 2019).
Read-outs that look alike come from different tables or passages of the source.

[1] = experimental solvation free energy, test set with 372 neutral compounds
[2] = experimental solvation free energy, neutral compounds test set
[3] = aqueous solvation free energy, charged compounds (ions)

Row | SMILES | Exp. ΔGsolv [1] [kcal/mol] | Exp. ΔGsolv [2] [kcal/mol] | also measured
1 | CCCC(C)Cl (stereo not drawn) [Compound 0411chp] | 0.07 | – | –
2 | C#CCC [Compound 0032but] | -0.16 | – | –
3 | CN(C)c1ccccc1 [n014] | – | -3.58 | –
4 | Clc1ccc(Cl)cc1 [Compound 0176pdi] | -1.01 | – | –
5 | COC(=O)c1sccc1S(=O)(=O)NC(=O)Nc1nc(C)nc(OC)n1 [test1054] | – | -16.2 | –
6 | CC(=O)Nc1ccccc1O [test3004] | – | -11.61 | –
7 | CCCS [Compound 0138pro] | – | -1.05 | –
8 | CSc1nc(NC(C)C)nc(NC(C)C)n1 [test1047] | -8.4 | – | –
9 | CN(C)C(=O)Nc1ccccc1 [Compound 0401amia] | – | -9.63 | –
10 | C=CCCC [Compound 0027pen] | 1.66 | – | –
11 | CCOP(=S)(OCC)Oc1ccc(Cl)cc1Cl [Compound 0438pho] | – | -3.86 | –
12 | CC(=O)OCCOC(C)=O [test0013] | – | -6.34 | –
13 | C/C=C/CC [Compound 0028Epe] | 1.34 | – | –
14 | Cc1cccc(O)c1 [Compound 0056mcr] | – | -5.49 | –
15 | C1CCNCC1 [Compound 0225pipa] | – | -5.11 | –
16 | CCCCCN [Compound 0113pen] | – | -4.1 | –
17 | CCC(=O)OC [Compound 0094met] | – | -2.93 | –
18 | Nc1ccc(Nc2ccccc2)c2c1C(=O)c1ccccc1C2=O [test1059] | – | -7.4 | –
19 | CCCCC(=O)OC [Compound 0098met] | – | -2.57 | –
20 | CN1CCOCC1 [Compound 0227Nme] | – | -6.34 | –
21 | CC(=O)Oc1ccccc1C(=O)O [test2001] | – | -9.94 | –
22 | CCCN(CC1CC1)c1c([N+](=O)[O-])cc(C(F)(F)F)cc1[N+](=O)[O-] [test1046] | -2.5 | – | –
23 | CNC [Compound 0104dim] | – | -4.29 | –
24 | Nc1ccc(N=Nc2ccc([N+](=O)[O-])cc2)cc1 [test1058] | -11.2 | – | –

Row | SMILES | Exp. ΔGsolv [1] [kcal/mol] | Exp. ΔGsolv [2] [kcal/mol] | also measured
25 | CC(=O)O [Compound 0086eth] | – | -6.7 | –
26 | C1=CCCC1 [Compound 0026cyc] | 0.56 | – | –
27 | C=C [Compound 0021eth] | 1.27 | – | –
28 | FC(F)(F)C(F)(F)F [Compound 0405hex] | 3.94 | – | –
29 | Brc1ccc(Br)cc1 [Compound 0187dib] | -2.3 | – | –
30 | O=C1C2CC=CCC2C(=O)N1SC(Cl)(Cl)Cl (stereo not drawn) [test1014] | – | -9 | –
31 | COC(C)=O [Compound 0093met] | – | -3.32 | –
32 | ClC(Cl)Cl [Compound 0162tri] | -1.07 | – | –
33 | CC(=O)c1ccccc1 [Compound 0084met] | -4.58 | – | –
34 | CC(C)(C)C [Compound 0011dim] | 2.5 | – | –
35 | CCC(C)O[N+](=O)[O-] (stereo not drawn) [test1004] | -1.8 | – | –
36 | CCOP(=S)(OCC)SCSP(=S)(OCC)OCC [test1031] | – | -6.1 | –
37 | O=Cc1ccc(O)cc1 [Compound 0151phy] | – | -10.48 | –
38 | c1c[nH]cn1 [test0017] | -9.81 | – | –
39 | CCCCO[N+](=O)[O-] [test1003] | -2.1 | – | –
40 | CCSSCC [Compound 0223die] | – | -1.63 | –
41 | CCCl [Compound 0163chl] | -0.63 | – | –
42 | COC(C)(C)C [Compound 0067but] | – | -2.21 | –
43 | CCN [Compound 0103eth] | – | -4.5 | –
44 | CCCC(C)=O [Compound 0078pen] | -3.53 | – | –
45 | c1ccc2ccccc2c1 [Compound 0041nap] | -2.39 | – | –
46 | CCS [Compound 0137ethb] | – | -1.3 | –
47 | Cl/C=C\Cl [Compound 0171Zdi] | -1.17 | – | –
48 | CC(C)C [Compound 0010met] | 2.32 | – | –

Row | SMILES | Exp. ΔGsolv [1] [kcal/mol] | Exp. ΔGsolv [2] [kcal/mol] | also measured
49 | C1CCCCC1 [Compound 0018cyc] | 1.23 | – | –
50 | O=S1(=O)CCCC1 [test2027] | – | -8.61 | –
51 | Nc1cccc(Cl)c1 [i125, 3-chloroaniline, reference compound] | – | – | Exp. ΔGsolv [3]: -74.70 kcal/mol
52 | Cc1cccc(C)c1 [Compound 0039mxy] | -0.84 | – | –
53 | CCCCN [Compound 0110but] | – | -4.29 | –
54 | O=C(O)C(Cl)Cl [i120, dichloroaceticacid, reference compound] | – | – | Exp. ΔGsolv [3]: -62.30 kcal/mol
55 | Clc1c(Cl)c(Cl)c(Cl)c(Cl)c1Cl [test2015] | – | -2.33 | –
56 | C=CCCl [Compound 0170chl] | -0.57 | – | –
57 | CCCC(=O)CCC [Compound 0083hep] | -2.93 | – | –
58 | C1CCNC1 [Compound 0108pyr] | – | -5.48 | –
59 | OCC(F)(F)F [Compound 0207tri] | – | -4.31 | –
60 | COC(OC)(OC)C(F)(F)F [test2029] | – | -0.8 | –
61 | C1CCCC1 [Compound 0017cyc] | 1.2 | – | –
62 | CC1CCCCC1 [Compound 0019met] | 1.71 | – | –
63 | Cc1cnccn1 [Compound 0117met] | -5.57 | – | –
64 | ClC(Cl)=C(Cl)Cl [Compound 0204tet] | 0.05 | – | –
65 | C=C(C)C [Compound 0024met] | 1.16 | – | –
66 | OCCO [Compound 0046eth] | – | -9.3 | –
67 | CCc1cnccn1 [Compound 0230eth] | -5.51 | – | –
68 | ClC=C(Cl)Cl [Compound 0173tri] | -0.39 | – | –
69 | C=COCC(F)(F)F [Compound 0214tri] | – | -0.12 | –
70 | O=C(O)c1ccccc1 [i064, benzoicacid, reference compound] | – | – | Exp. ΔGsolv [3]: -71.20 kcal/mol
71 | C[C@@H]1CCCC[C@@H]1C [Compound 0020cis] | 1.58 | – | –
72 | CC#N [Compound 0126eth] | -3.89 | – | –

Row | SMILES | Exp. ΔGsolv [1] [kcal/mol] | Exp. ΔGsolv [2] [kcal/mol] | also measured
73 | CCCSCCC [Compound 0143dip] | – | -1.27 | –
74 | COC(=O)c1ccccc1CS(=O)(=O)NC(=O)Nc1nc(OC)cc(OC)n1 [test1012] | – | -17.2 | –
75 | C[N+](=O)[O-] [Compound 0506nit] | -3.95 | – | –
76 | Cc1ccc(N)cc1 [i021, 4-methylaniline, reference compound] | – | – | Exp. ΔGsolv [3]: -69.80 kcal/mol
77 | C=CC [Compound 0022pro] | 1.27 | – | –
78 | CC(C(=O)O)c1ccc(-c2ccccc2)c(F)c1 (stereo not drawn) [test2013] | – | -8.42 | –
79 | O=c1cc(Cl)[nH]c(=O)[nH]1 [test2006] | – | -15.83 | –
80 | C#C [Compound 0030eth] | -0.01 | – | –
81 | CCCCCCl [Compound 0410clp] | 0.07 | – | –
82 | COc1ccccc1 [Compound 0068ani] | – | -2.45 | –
83 | CCOP(=S)(OCC)Oc1cc(C)nc(C(C)C)n1 [test1024] | – | -6.5 | –
84 | Cc1ccc(C(=O)N(C)C)cc1 [test0006] | – | -9.76 | –
85 | O=C1NC(=O)c2ccccc21 [test2025] | -9.61 | – | –
86 | CCCCCCCC=O [Compound 0237oct] | – | -2.29 | –
87 | CC(=O)C(C)(C)C [Compound 0081dim] | -2.89 | – | –
88 | Clc1ccccc1 [Compound 0174chl] | -1.12 | – | –
89 | ClCC(Cl)Cl [Compound 0166tri] | -1.95 | – | –
90 | FC(F)(F)F [Compound 0200tet] | 3.16 | – | –
91 | Cl/C=C/Cl [Compound 0172Edi] | -0.76 | – | –
92 | CCSCC [Compound 0142die] | – | -1.43 | –
93 | CN1CCNCC1 [Compound 0112Nme] | – | -7.77 | –
94 | CN(C)C [Compound 0107tri] | – | -3.23 | –
95 | CCCCCC [Compound 0006nhe] | 2.49 | – | –
96 | FC(F)OC(Cl)C(F)(F)F (stereo not drawn) [Compound 0209chl] | – | 0.11 | –

Row | SMILES | Exp. ΔGsolv [1] [kcal/mol] | Exp. ΔGsolv [2] [kcal/mol] | also measured
97 | CCCC(=O)OC [Compound 0096met] | – | -2.83 | –
98 | CC[N+](=O)[O-] [Compound 0130nit] | -3.71 | – | –
99 | FC(F)(Cl)C(F)(Cl)Cl [Compound 0206tri] | 1.77 | – | –
100 | CCCNCCC [Compound 0115dip] | – | -3.66 | –
101 | CCC(=O)O [i060, propanoicacid, reference compound] | – | – | Exp. ΔGsolv [3]: -76.20 kcal/mol
102 | FC(F)(F)C(F)(F)Cl [Compound 0424clp] | 2.86 | – | –
103 | CCC(C)n1c(=O)[nH]c(C)c(Br)c1=O (stereo not drawn) [test1013] | – | -9.7 | –
104 | CCOC(=O)c1ccccc1S(=O)(=O)NC(=O)Nc1nc(Cl)cc(OC)n1 [test1020] | – | -14 | –
105 | CCCC[N+](=O)[O-] [Compound 0133nit] | -3.08 | – | –
106 | Cc1nc(N(C)C)nc(OC(=O)N(C)C)c1C [test1063] | -9.4 | – | –
107 | CCOC(C)OCC [test0009] | – | -3.28 | –
108 | CCCC(C)C [Compound 0012met] | 2.52 | – | –
109 | CNC(=O)O/N=C/C(C)(C)SC [test1008] | – | -9.8 | –
110 | CSC [Compound 0140dim] | – | -1.54 | –
111 | CS [Compound 0136met] | – | -1.24 | –
112 | Nc1cccc2c1C(=O)c1ccccc1C2=O [test1061] | – | -8 | –
113 | CCCCBr [Compound 0184bro] | -0.41 | – | –
114 | ClC1=C(Cl)C2(Cl)C3C4CC(C5OC45)C3C1(Cl)C2(Cl)Cl (stereo not drawn) [test1030] | – | -5.5 | –
115 | FC(F)(F)Br [Compound 0197bro] | 1.79 | – | –
116 | CCCOC(=O)c1ccc(O)cc1 [test2026] | – | -9.37 | –
117 | COP(=O)(OC)OC [Compound 0220tri] | – | -8.7 | –
